One data set concerns HMGB1. In words: Inhibition of hyperoxia-induced HMGB1 release from macrophages (ELISA). Format: cell-based, mouse. The conditions noted are these: RAW 264.7 cells, 95% O2 24 hours, test substance 25 μg/mL, ELISA of supernatant. Here is the method:
Macrophages cultured under hyperoxic conditions experience oxidative stress, causing them to secrete HMGB1 to the cell culture media. To determine the efficacy of the Aloe-based composition and its components in reducing the accumulation of extracellular HMGB1 of cultured macrophages, RAW 264.7 cells were exposed for 24 hours to either 21% O2 (room air (RA)), or 95% O2 in the presence or absence of test substance at 25 μg/mL concentration. HMGB1 levels in cell culture supernatants were determined by ELISA at a single concentration of test substance in duplicate. The data are expressed as mean±SEM of one experiment assayed in duplicate. *p<0.05, **p<0.01, ****p<0.0001 compared to macrophages treated under hyperoxia with vehicle only. Control cells were treated with Sodium Salicylate (SS) as a positive control, which attenuates hyperoxia-compromised macrophage function and oxidative-stress-induced HMGB 1 release.

In data set [1] the test system is RAW 264.7 cells. In words: MTT assay in cultured RAW 264.7 cells under hyperoxia. In kind it is cell-based, mouse. Particulars: RAW 264.7, 95% O2 24 hours. Here is the method:
Cell viability was determined by MTT assay.

For data set [2], the system named is HSF cells (Human fibroblasts). In words: DNA damage of human fibroblasts induced by hydrogen peroxide (γH2AX). In kind it is cell-based. The conditions noted are these: γH2AX staining, H2O2 1 mM 4 h. As for the experimental part:
HSF cells (Human fibroblasts) were seeded in 96-well tissue culture plates and incubated at 37° C. and in 5% CO2 and 95% air with test substances. Treated HSF cells were subjected to DNA damage by incubating with H2O2 at a concentration of 1 mM for 4 h, then immunostained for γH2AX, a phosphorylated histone that is a marker of DNA double strand breaks. DAPI was used to stain the cell nucleus. Pictures taken by Image Xpress and analyzed with Meta Xpress. Catechin (100 μg/ml) was used as positive control with 70% reduction of DNA damage, as assessed by quantification of γH2AX staining. […]. Rosmarinic acid reduced DNA damage by 24% at 25 μg/mL.

The subject of data set [3] is HaCaT cells. Nature of the data set: Cytotoxicity (CCK viability) in HaCaT cells. Format: cell-based, human. Particulars: 25 μg/mL. Here is the method: (§1) HaCaT cells (Human immortal keratinocyte cells) were seeded at a density of 8,000 cells/well in 96-well tissue culture plates and treated for 24 hours with test substance at 25 μg/mL. Cytotoxicity was evaluated to remove false positives (CCK >80% viability). DCFH-DA (a fluorescent probe) was added to cells to detect ROS production and incubated at 37° C. for 25 minutes. After exposure to UV irradiation under the solar simulator (Sol-UV-6 Solar Simulator) with ultraviolet filter for 10 minutes, the fluorescence value was measured at 488 nm (excitation) and 525 nm (emission) by Multimode Reader. Vitamin C was used as positive control treated at 40 μg/mL with 43% reduction of ROS production. At 25 μg/mL, Rosmarinic acid decreased ROS generation by 24%, compared to the level of UV exposed HaCaT cells. Organic extracts (OE) were tested at 50 μg/mL, while aqueous extracts were tested at 100 μg/mL. Fractions or pure compounds were tested at 25 μg/mL in this assay.

Data set [4] deals with RAW 264.7 cells. In words: Hyperoxia-induced dysfunctional macrophage phagocytosis assay. Format: cell-based, mouse. The conditions noted are these: RAW 264.7, 95% O2 24 hours, beads per cell as percent increase.
Procedure: RAW 264.7 cells either remained at room air (21% O2) or were exposed to 95% O2 for 24 hours in the presence of test substance. Cells were then incubated with FITC-labeled latex mini-beads for 1 hour and stained with phalloidin and DAPI to visualize the actin cytoskeleton and nuclei, respectively. For quantification of phagocytic activity, at least 200 cells per group were counted and the numbers of beads per cell were represented as a percent increase compared to the 21% 02 (0 μg/ml) control group. Each value represents the mean±SEM of 3 independent experiments for each group, in duplicate. *, P<0.05 compared to the 21% O2 (0 μg/ml) control group.
Data set [5] deals with HaCaT cells. Nature of the data set: UVA&UVB induced ROS assay in HaCaT cell. Format: cell-based, human. Particulars: positive control, 40 μg/mL. Here is the method: as §1, with “Cytotoxicity was evaluated to remove false positives (CCK >80% viability).” left out, “Vitamin C was used as positive control treated at 40 μg/mL with 43% reduction of ROS production. At 25 μg/mL, Rosmarinic acid decreased ROS generation by 24%, compared to the level of UV exposed HaCaT cells.” left out

For data set [6] the following is noted: DPPH assay, 100 mg/L (Hu et al., 2003); cited from earlier work.
The next data set deals with phospholipase A2. The conditions noted are these: phospholipase A2 from snake venom (Cuéllar et al 1996); cited from earlier work.
Data set [7] deals with Pseudomonas aeruginosa (PA) infected hyperoxic mice. In words: Hyperoxia-induced mortality in Pseudomonas aeruginosa (PA)-infected mice. Format: in vivo, mouse.
Data set [8] has as its system hyperoxic and PA infected mice. In words: Oxidative stress-exacerbated acute lung injury induced by bacterial infection (BAL total protein, biomarkers, histology). Particulars: hyperoxia + PA infected mice, Resveratrol 50 mg/kg. In kind it is in vivo, mouse.
The test system of a further data set is Pseudomonas aeruginosa. Nature of the data set: Bacterial clearance in the airways in hyperoxic and PA infected mice. The conditions noted are these: 24 hours after infection. Format: in vivo, mouse.
Data set [9] concerns acute ear edema induced by tetradecanoyl phorbol acetate (TPA). Particulars: acute ear edema induced by TPA (Cuellar et al 1997); cited from earlier work.

`CC(=O)Cc1cc(=O)c2c(C)cc(O)c([C@@H]3O[C@H](CO)[C@@H](O)[C@H](O)[C@H]3O)c2o1` [Aloesin] had an HMGB1 inhibition in the data set on HMGB1 of 52.47.
Take `O=C(/C=C/c1ccc(O)c(O)c1)O[C@H](Cc1ccc(O)c(O)c1)C(=O)O` [Rosmarinic acid]: the “MTT (% reduction)” value is listed as 5.63% in the data set on RAW 264.7 cells [1] (12 μg/mL), 13.47% with RAW 264.7 cells [1] (25 μg/mL), 20.03% with RAW 264.7 cells [1] (50 μg/mL) and 20.53% with RAW 264.7 cells [1] (100 μg/mL). In [2] (25 μg/mL), the “reduction of DNA damage” value turned out to be 24%. Moreover, in the data set on HMGB1 (Mus musculus, RAW264.7), the inhibition at 25 µg/mL worked out at 73%. For the same compound, the “Viability (%)” value with HaCaT cells [3] came to 57%. Also, the Phagocytosis in the data set with RAW 264.7 cells [4] (12 μg/mL) was 51.00%; in the data set on RAW 264.7 cells [4] (25 μg/mL) it was 74.35%.
On to `O=C1O[C@H]([C@@H](O)CO)C(O)=C1O` [Vitamin C], for which the “reduction of ROS production” value with HaCaT cells [5] turned out to be 43%.
Regarding `Cc1c(C)c2c(c(C)c1O)CC[C@@](C)(CCC[C@H](C)CCC[C@H](C)CCCC(C)C)O2` [a-tocopherol], the radical scavenging activity in data set [6] is given as 65.20%.
In the case of `Cc1cc(C(C)(C)C)c(O)c(C(C)(C)C)c1` [butylated hydroxytoluene], the radical scavenging activity in [6] is given as 70.52%.
On to `C=C(CC[C@@H](C(=O)O)[C@H]1[C@H](O)C[C@@]2(C)C3=CC[C@H]4C(C)(C)[C@@H](O)CC[C@]4(C)C3=CC[C@]12C)C(C)C` [dehydrotumulosic acid], for which, on phospholipase A2, the IC50 was 845 µM.
In [7] (7 days prophylactic treatment, hyperoxia 2 days, PA inoculated, 24 hours post-inoculation), `Oc1ccc(C=Cc2cc(O)cc(O)c2)cc1` [resveratrol] registered a mortality rate of 27%. In data set [7] (RES 50 mg/kg, hyperoxia + PA inoculation, 11 total animals), the Dead animals came to 3. The Mortality % in data set [7] (RES 50 mg/kg, hyperoxia + PA inoculation, 24 hours post-inoculation) is recorded as 27.27%. The lung injury result in [8] is “significantly reduce lung injury”. The “Bacterial load in the airways, ×10^5 CFU/mL (Mean ± SE)” value in the data set on Pseudomonas aeruginosa (RES 50 mg/kg, hyperoxic and PA infected mice) was 2.4 ± 0.7 ×10^5 CFU/mL. Further, in the data set on Pseudomonas aeruginosa (UP360 500 mg/kg, Resveratrol 50 mg/kg oral, >99% O2 48 hours, PA intranasal), the “bacterial load in the airways vs hyperoxia + vehicle (O2)” value was “airway bacterial load was significantly lower”.
Take Catechin: the “reduction of DNA damage” value in data set [2] (100 μg/ml) turned out to be 70%.
Take hydrotumulosic acid: the IC50 in data set [9] is given as 0.68 nmol/ear.

These data come from patent US20220016196A1, “Aloe Based Compositions Comprising Polysaccharides and Polyphenols for Regulation of Homeostasis of Immunity” (Unigen, Inc., priority 2020, published 2022).
